From article PMC5668067, “Phase I dose-escalation study of the c-Met tyrosine kinase inhibitor SAR125844 in Asian patients with advanced solid tumors, including patients with MET-amplified gastric cancer” (Oncotarget, 2017)

How the values were obtained:
[1] = test system: Asian patients with solid tumors; experiment: phase I safety: treatment-emergent adverse events (NCI CTCAE v4.03), safety population; format: in vivo
Procedure: SAR was administered by weekly intravenous infusion on days 1, 8, 15, and 22 of each 28–day cycle. The starting dose was 260 mg/m^2, and dose increments of 30% were made, to a maximum of 570 mg/m^2. Treatment continued until disease progression, unacceptable toxicity, or consent withdrawal. Patients were screened within 21 days before the first administration and followed for 30 days after the last administration.
The safety population consisted of all patients exposed to SAR, regardless of the amount of treatment administered.

[2] = test system: xenograft models of MET-amplified human gastric tumors; design: method as in PMID 25504634; conditions: cited from earlier work
[3] = dose-escalation cohort, 260 mg/m^2 (N = 6)
[4] = dose-escalation cohort, 340 mg/m^2 (N = 4)
[5] = dose-escalation cohort, 440 mg/m^2 (N = 3)
[6] = dose-escalation cohort, 570 mg/m^2 (N = 6)
[7] = dose-expansion cohort, All (N = 19)
[8] = dose-expansion cohort, GC (N = 14)
[9] = two xenograft models, intravenous single-agent

O=C(NCCN1CCOCC1)Nc1nc2ccc(Sc3nnc4ccc(-c5ccc(F)cc5)nn34)cc2s1 [SAR125844]
patients who discontinued treatment because of a TEAE ([1]; TEAE considered unrelated to the study drug): One | TEAE Abdominal pains ([1]; Total (N = 38)): 8 (21.1) n (%) | TEAE Back pain ([1]; Total (N = 38)): 5 (13.2) n (%) | TEAE Cancer pain ([1]; Total (N = 38)): 4 (10.5) n (%) | TEAE Constipation ([1]; Total (N = 38)): 8 (21.1) n (%) | TEAE Cough ([1]; Total (N = 38)): 4 (10.5) n (%) | TEAE Decreased appetite ([1]; Total (N = 38)): 11 (28.9) n (%) | TEAE Diarrhea ([1]; Total (N = 38)): 5 (13.2) n (%) | TEAE Edema, peripheral ([1]; Total (N = 38)): 4 (10.5) n (%) | TEAE Fatigue/asthenia ([1]; Total (N = 38)): 8 (21.1) n (%) | TEAE Injection site reaction/phlebitis ([1]; Total (N = 38)): 7 (18.4) n (%) | TEAE Insomnia ([1]; Total (N = 38)): 4 (10.5) n (%) | TEAE Nausea ([1]; Total (N = 38)): 14 (36.8) n (%) | TEAE Pyrexia ([1]; Total (N = 38)): 7 (18.4) n (%) | TEAE Rash ([1]; Total (N = 38)): 4 (10.5) n (%) | TEAE Vomiting ([1]; Total (N = 38)): 13 (34.2) n (%) | deaths due to adverse events ([1]; all patients (N = 38)): no deaths | frequency of abdominal pains ([1]; all patients (N = 38)): 21.1% | frequency of constipation ([1]; all patients (N = 38)): 21.1% | frequency of decreased appetite ([1]; all patients (N = 38)): 28.9% | frequency of fatigue or asthenia ([1]; all patients (N = 38)): 21.1% | frequency of nausea ([1]; all patients (N = 38)): 36.8% | frequency of vomiting ([1]; all patients (N = 38)): 34.2% | patients with at least one dose modification ([1]; all patients (N = 38)): Nine | patients with drug-related Grade ≥ 3 AEs ([1]; all patients (N = 38)): 7.9% | patients with infusion interrupted because of a grade 2 infusion-related reaction ([1]; all patients (N = 38)): one | patients with study-drug related Grade ≥ 3 TEAEs ([1]; all patients (N = 38)): three | serious TEAEs considered study-drug related ([1]; all patients (N = 38)): none | patients with Grade ≥ 3 TEAEs ([1]; all patients (N = 38), 15 patients): 39.5% | patients with study-drug related TEAEs ([1]; all patients (N = 38), 22 patients): 57.9% | patients with TEAEs ([1]; all patients (N = 38), 36 patients): 94.7% | patients with serious TEAEs ([1]; all patients (N = 38), eight patients): 21.1% | TEAE Abdominal pains [1, 3]: 1 (16.7) n (%) | TEAE Back pain [1, 3]: 3 (50.0) n (%) | TEAE Cancer pain [1, 3]: 0 (0) n (%) | TEAE Constipation [1, 3]: 2 (33.3) n (%) | TEAE Cough [1, 3]: 2 (33.3) n (%) | TEAE Decreased appetite [1, 3]: 1 (16.7) n (%) | TEAE Diarrhea [1, 3]: 0 (0) n (%) | TEAE Edema, peripheral [1, 3]: 0 (0) n (%) | TEAE Fatigue/asthenia [1, 3]: 3 (50) n (%) | TEAE Injection site reaction/phlebitis [1, 3]: 1 (16.7) n (%) | TEAE Insomnia [1, 3]: 1 (16.7) n (%) | TEAE Nausea [1, 3]: 1 (16.7) n (%) | TEAE Pyrexia [1, 3]: 4 (66.7) n (%) | TEAE Rash [1, 3]: 2 (33.3) n (%) | TEAE Vomiting [1, 3]: 1 (16.7) n (%) | TEAE Abdominal pains [1, 4]: 0 (0) n (%) | TEAE Back pain [1, 4]: 0 (0) n (%) | TEAE Cancer pain [1, 4]: 0 (0) n (%) | TEAE Constipation [1, 4]: 0 (0) n (%) | TEAE Cough [1, 4]: 1 (25.0) n (%) | TEAE Decreased appetite [1, 4]: 1 (25.0) n (%) | TEAE Diarrhea [1, 4]: 0 (0) n (%) | TEAE Edema, peripheral [1, 4]: 0 (0) n (%) | TEAE Fatigue/asthenia [1, 4]: 0 (0) n (%) | TEAE Injection site reaction/phlebitis [1, 4]: 0 (0) n (%) | TEAE Insomnia [1, 4]: 0 (0) n (%) | TEAE Nausea [1, 4]: 2 (50) n (%) | TEAE Pyrexia [1, 4]: 0 (0) n (%) | TEAE Rash [1, 4]: 1 (25.0) n (%) | TEAE Vomiting [1, 4]: 1 (25.0) n (%) | TEAE Abdominal pains [1, 5]: 1 (33.3) n (%) | TEAE Back pain [1, 5]: 0 (0) n (%) | TEAE Cancer pain [1, 5]: 1 (33.3) n (%) | TEAE Constipation [1, 5]: 1 (33.3) n (%) | TEAE Cough [1, 5]: 0 (0) n (%) | TEAE Decreased appetite [1, 5]: 1 (33.3) n (%) | TEAE Diarrhea [1, 5]: 0 (0) n (%) | TEAE Edema, peripheral [1, 5]: 0 (0) n (%) | TEAE Fatigue/asthenia [1, 5]: 1 (33.3) n (%) | TEAE Injection site reaction/phlebitis [1, 5]: 0 (0) n (%) | TEAE Insomnia [1, 5]: 0 (0) n (%) | TEAE Nausea [1, 5]: 0 (0) n (%) | TEAE Pyrexia [1, 5]: 0 (0) n (%) | TEAE Rash [1, 5]: 0 (0) n (%) | TEAE Vomiting [1, 5]: 0 (0) n (%) | TEAE Abdominal pains [1, 6]: 0 (0) n (%) | TEAE Back pain [1, 6]: 0 (0) n (%) | TEAE Cancer pain [1, 6]: 2 (33.3) n (%) | TEAE Constipation [1, 6]: 1 (16.7) n (%) | TEAE Cough [1, 6]: 0 (0) n (%) | TEAE Decreased appetite [1, 6]: 0 (0) n (%) | TEAE Diarrhea [1, 6]: 0 (0) n (%) | TEAE Edema, peripheral [1, 6]: 1 (16.7) n (%) | TEAE Fatigue/asthenia [1, 6]: 0 (0) n (%) | TEAE Injection site reaction/phlebitis [1, 6]: 1 (16.7) n (%) | TEAE Insomnia [1, 6]: 0 (0) n (%) | TEAE Nausea [1, 6]: 3 (50) n (%) | TEAE Pyrexia [1, 6]: 0 (0) n (%) | TEAE Rash [1, 6]: 0 (0) n (%) | TEAE Vomiting [1, 6]: 1 (16.7) n (%) | TEAE Back pain [1, 7]: 2 (10.5) n (%) | TEAE Cancer pain [1, 7]: 1 (5.3) n (%) | TEAE Constipation [1, 7]: 4 (21.1) n (%) | TEAE Cough [1, 7]: 1 (5.3) n (%) | TEAE Decreased appetite [1, 7]: 8 (42.1) n (%) | TEAE Diarrhea [1, 7]: 5 (26.3) n (%) | TEAE Edema, peripheral [1, 7]: 3 (15.8) n (%) | TEAE Fatigue/asthenia [1, 7]: 4 (21.1) n (%) | TEAE Injection site reaction/phlebitis [1, 7]: 5 (26.3) n (%) | TEAE Insomnia [1, 7]: 3 (15.8) n (%) | TEAE Nausea [1, 7]: 8 (42.1) n (%) | TEAE Pyrexia [1, 7]: 3 (15.8) n (%) | TEAE Rash [1, 7]: 1 (5.3) n (%) | TEAE Vomiting [1, 7]: 10 (52.6) n (%) | TEAE Abdominal pains [1, 8]: 2 (14.3) n (%) | TEAE Back pain [1, 8]: 2 (14.3) n (%) | TEAE Cancer pain [1, 8]: 1 (7.1) n (%) | TEAE Constipation [1, 8]: 2 (14.3) n (%) | TEAE Cough [1, 8]: 1 (7.1) n (%) | TEAE Decreased appetite [1, 8]: 5 (35.7) n (%) | TEAE Diarrhea [1, 8]: 4 (28.6) n (%) | TEAE Edema, peripheral [1, 8]: 2 (14.3) n (%) | TEAE Fatigue/asthenia [1, 8]: 2 (14.3) n (%) | TEAE Injection site reaction/phlebitis [1, 8]: 4 (28.6) n (%) | TEAE Insomnia [1, 8]: 2 (14.3) n (%) | TEAE Nausea [1, 8]: 4 (28.6) n (%) | TEAE Pyrexia [1, 8]: 1 (7.1) n (%) | TEAE Rash [1, 8]: 1 (7.1) n (%) | TEAE Vomiting [1, 8]: 6 (42.9) n (%) | cases of transaminase increase (grade ≥ 3) leading to dose modification ([1]; laboratory findings): Two | toxicity profile ([2]; preclinical): acceptable toxicity profile | c-Met kinase inhibition in xenograft tumors [2, 9]: c-Met kinase inhibition | tumor regression [2, 9]: dose-dependent tumor regression
